Laboratory results: patent US12403160B2, “Injection composition containing isolated mitochondria, and use thereof” (Paean Biotechnology Inc., priority 2020, dated 2025)

Experiments:
[1] = tested on: platelets
Experimental: After treatment, the resultant was incubated with shaking at 100 rpm at 37° C. for one hour.

[2] = tested on: platelets isolated from pig whole blood; test: Effect of storage solvent for mitochondria and antithrombotic agent on platelet aggregation; type: cell-based
Experimental: Pig whole blood was centrifuged at 300×g for 5 minutes to obtain a cloudy yellow supernatant containing platelets and plasma. […] The obtained platelet precipitate was replaced with an equal amount of Dulbecco's phosphate-buffered saline (DPBS) solution, washed by centrifugation at 1,500×g for 15 minutes, and resuspended in an equal amount of a fresh DPBS solution.
In order to confirm the effect of a storage solvent for mitochondria and an antithrombotic agent on inhibition of platelet aggregation, the mitochondria of human umbilical cord-derived mesenchymal stem cells (UC-hMSC) were isolated and stored in saline and SHE solution, which is a storage solvent, for one hour, respectively, and the resultant was treated with the platelets isolated from pig whole blood and then treated with heparin. After 1 hour, the result was confirmed with a confocal laser scanning microscope.

[3] = tested on: platelets in the blood; test: Number of platelets in the blood after intravenous injection of mitochondria; type: in vivo, BALB/c-nu/nu mice; conditions: UC-hMSC mitochondria 50 μg/0.3 mL, single intravenous injection, mice
Experimental: The specific experimental design, which was performed so as to confirm the effect of reducing the number of platelets during intravascular injection of mitochondria into mice, is as shown in Table 2 below.

NCC(=O)O [glycine]
glycine concentration at which mitochondria-induced platelet aggregation is inhibited ([1]; 1 μg UC-hMSC mitochondria in 10 μL Tris-trehalose buffer with glycine 0-100 mM, 1 mL platelet solution, 37° C., one hour): ≥ 25 mM | inhibition of mitochondria-induced platelet aggregation at low glycine concentration ([1]; low concentration of glycine in Tris-trehalose buffer): could not inhibit platelet aggregation

heparin
inhibition of mitochondria-induced platelet aggregation with rising concentration of antithrombotic agent ([2]; UC-hMSC mitochondria stored in SHE solution): inhibited as the concentrations of heparin as an antithrombotic agent increased | inhibition of mitochondria-induced platelet aggregation by antithrombotic agent ([2]; UC-hMSC mitochondria stored in saline and SHE solution, pig platelets): partially inhibited | change in the number of platelets in the blood [3]: recovered to some extent, but the decrease in platelets was not completely inhibited
